As a reminder, the inhibition is how much of the control response was suppressed.

Structures are written as SMILES.

In one data set the test system is 293 751 SWE cells. The data set can be described thus: Cytotoxicity (MTT) in 293 751 SWE cells. Type of data set: cell-based, human. Particulars: concentration not given. In short, it runs like this: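 Used HEK293 cells stably expressing APP751 carrying the Swedish double mutation (K651N/M652L), plated at 1.5-2.5×10^4 cells/well in DMEM + 10% FBS. MTT was added to a final 1 mg/mL for 1 h at 37 °C, then lysed in SDS/DMF (pH 4.7) overnight. Viability was read as OD562 − OD650.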

Data set [1] relates to β-amyloid peptide production. Briefly: Cellular screen for inhibitors of β-amyloid production (ELISA, 293 751 SWE cells). Type of data set: cell-based, human. As to conditions: 2 h pretreatment + 2 h, normalized for cytotoxicity (MTT), concentration not given. In short, it runs like this: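 293 751 SWE cells (K293 stably expressing APP751 Swedish mutant) pretreated 2 h with compound, then fresh compound-containing medium for 2 h more at 37 °C. Secreted β-amyloid in conditioned medium quantified by sandwich ELISA (capture 266 anti-Aβ13-28, labelled 6C6 anti-Aβ1-16) against a standard curve as ng/mL; mean ± SD of ≥6 replicates.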
(ELISA stands for enzyme-linked immunosorbent assay.)

Another data set can be described thus: Ultraviolet absorption. Type of data set: physicochemical. Particulars: 0.1 mg/mL in methanol, 1 cm quartz cuvette. As to the method:
The ultraviolet (UV) absorption properties of two representative substituted 3-indolyl-5-pyrazolones were evaluated and compared to indomethacin [1-(4-chlorobenzoyl)-5-methoxy-2-methyl-^1 H-indole-3-acetic acid], a compound known to absorb UV light (See page 4855 of the Merck Index, 10th Edition, Windholz, et al. Editor (1983)). Specifically, 0.1 mg/mL of 3-indolyl-5-pyrazolone (Ex. 9 or 33) or indomethacin in methanol was added to a quartz cuvette (1 cm) and the UV absorption of this solution was then measured at a wavelength of from 200 nm to 800 nm (Examples 9 and 33) and from 190 nm to 800 nm.

The next data set has as its target T1, 5-lipoxygenase (Rattus norvegicus, UniProt P12527).
T1 construct: crude 5-lipoxygenase enzyme from rat basophilic leukemia cells (RBL-1); endogenous in cells; host or cells: RBL-1 (rat basophilic leukemia cells), crude enzyme
T1 sequence (P12527 1-673): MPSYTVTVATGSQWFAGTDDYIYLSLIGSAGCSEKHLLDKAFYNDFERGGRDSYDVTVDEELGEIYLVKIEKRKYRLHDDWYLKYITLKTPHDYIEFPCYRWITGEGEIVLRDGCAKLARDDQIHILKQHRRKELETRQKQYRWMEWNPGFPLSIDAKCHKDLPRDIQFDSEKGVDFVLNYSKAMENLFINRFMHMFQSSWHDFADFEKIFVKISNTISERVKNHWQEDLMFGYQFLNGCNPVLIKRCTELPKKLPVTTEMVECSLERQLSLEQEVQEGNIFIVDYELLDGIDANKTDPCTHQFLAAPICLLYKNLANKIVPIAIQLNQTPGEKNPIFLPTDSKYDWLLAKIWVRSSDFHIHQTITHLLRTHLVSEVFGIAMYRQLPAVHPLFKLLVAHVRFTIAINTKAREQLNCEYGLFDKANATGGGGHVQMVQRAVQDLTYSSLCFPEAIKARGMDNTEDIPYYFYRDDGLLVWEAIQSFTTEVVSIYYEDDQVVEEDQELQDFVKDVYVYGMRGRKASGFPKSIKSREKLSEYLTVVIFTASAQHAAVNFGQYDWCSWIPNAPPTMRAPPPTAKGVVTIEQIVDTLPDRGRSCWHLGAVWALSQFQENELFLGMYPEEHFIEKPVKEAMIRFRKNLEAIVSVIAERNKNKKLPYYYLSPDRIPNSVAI
Briefly: 5-Lipoxygenase inhibition (5-HETE radioimmunoassay). Type of data set: biochemical. Particulars: 6 μM compound; crude enzyme from RBL-1 cells; read-out: Percent Inhibition (5-lipoxygenase). As to the method:
5-Lipoxygenase catalyzes the oxidative metabolism of arachidonic acid to 5-hydroperoxyeicosatetraenoid acid ([…]), the initial reaction leading to the formation of the leukotrienes^18. Accordingly, compounds inhibiting 5-lipoxygenase activity are art recognized to have anti-inflammatory properties.
The ability of test compounds to inhibit 5-lipoxygenase activity was determined in assays^19 using crude 5-lipoxygenase enzyme from rat basophilic leukemia cells (RBL-1). Test compounds are pre-incubated with the enzyme for 5 minutes at room temperature and the reaction is initiated by addition of substrate (arachidonic acid). Following an 8 minute incubation at room temperature, the reaction is terminated by addition of citric acid, and levels of 5-HETE determined by 5-HETE radioimmunoassay.

For the compound `COc1ccc2c(c1)c(CC1=NN(C3CCCCC3)C(=O)C1)c(C)n2C(=O)c1ccc(Cl)cc1` [Example 9, 3-[1-(4-chlorobenzoyl)-5-methoxy-2-methyl-3-indolylmethyl]-1-cyclohexyl-5-pyrazolone], the “cytotoxic effect on the 293 751 SWE cells” value in the data set with 293 751 SWE cells is reported as “did not have a significant cytotoxic effect”. The “reduction of β-amyloid peptide production as compared to control” value in data set [1] was “at least 20%”. Moreover, in the data set “Ultraviolet absorption”, the “Abs (at λmax)” value was found to be 2.3299, the “E = Extinction coefficient” value was 23.29 AU/mg/mL/cm, the λmax came to 251 nm and the “λother (shoulder)” value is on record as 318 nm. Moreover, the inhibition at 6 µM on 5-lipoxygenase was found to be 75%.

The values above are taken from patent publication US5484940A, “Substituted 3-indolyl-5-pyrazolone compounds” (priority 1994, dated 1996).
